Experimental data as given in patent US6046219A, “Method for the treatment of conditions mediated by collagen formation together with cell proliferation by application of inhibitors of protein hydroxylation” (Cornell Research Foundation, Inc., priority 1997, dated 2000).
“Also recorded” adds a separate entry of the source.

Tests used:
Type in all cases: cell-based
[1] = system: deoxyhypusyl hydroxylase activity in human smooth muscle cells; test: Cellular deoxyhypusyl hydroxylase in human smooth muscle cells; conditions: FIG. 3b
Method: In FIG. 3a, the effect on the human enzyme was determined by measuring in proliferating cultured B-lymphocytes the covalent incorporation of tritiated spermidine-derived label into cellular protein, after standard hydrolysis, chromatographic separation of amino acids, and expression of the results relative to uninhibited controls. In FIG. 3b, a standard chromatographic elution profile is shown as obtained from cultured human smooth muscle cells ("SMC"), grown out of coronary atherosclerotic lesions and metabolically labeled in the absence and presence of L-mimosine. […]
The cellular conversion of the precursor deoxyhypusine to the hydroxylated hypusine in cells was examined, after preincubation with the inhibitor for 60 minutes, by labeling the human cells with ^3 H-spermidine (5 μCi/ml) in 25 cm^2 flasks (1×10^6 cells/flask) for 24 hours prior to cell lysis, precipitation with 10% TCA containing 1 mM each of putrescine, spermidine, and spermine, and hydrolysis in 6 N HCl at 110° C. for 16 hours. The hydrolysate was analyzed for labeled amino acids on an amino acid analyzer by published methods (Park et al., J. Biol. Chem., 257:7217-7222 (1982), which is hereby incorporated by reference). The retention of purified hypusine and deoxyhypusine was determined from standards.

type I procollagen = test: Type I procollagen secretion by SMC; conditions: human SMC, FIG. 6b
Method: (§1) Type III collagen biosynthesis (FIG. 6a) was assessed by a commercial radioimmunoassay using a monoclonal antibody to the N-terminal propeptide of type III procollagen. Plasminogen activator inhibitor-1 ("PAI-1") activity was measured by a standard enzymatic method. Type I collagen biosynthesis (FIG. 6b) was assessed by routine Western blot using a monoclonal antibody to the C-terminal propeptide of type I procollagen.
SMC or MRC-5 cells (3-5×10^6 cells/35 mm well), incubated in serum-free DMEM containing 50 μg/ml sodium ascorbate and 20 μg/ml β-aminopropionitrile, are exposed for 24 hours to increasing concentrations of hydroxypyridones. After centrifugation, to clear any cellular debris, these supernatants are used to determine the levels of type I and III procollagens, using commercially available radioimmunoassays (Incstar and Behringwerke, respectively).
Human SMC (3-5×10^5 cells/35 mm well), grown to confluency and incubated in serum-free DMEM containing 50 μg/ml sodium ascorbate and 20 μg/ml β-aminopropionitrile, were exposed for 24 hours to increasing concentrations of test compounds. […] Type I procollagen biosynthesis also was quantified by Western analysis in the following manner. […] Immunoblots were scanned with a UMAX UC630 flatbed scanner and quantified densitometrically using standard software.

[2] = system: plasminogen activator inhibitor-1 (PAI-1); test: Plasminogen activator inhibitor assay, SMC supernatants; conditions: human SMC, FIG. 6
Method: as §1
Supernatants of human SMC incubated with the hydroxypyridone L-mimosine under serum-free conditions (to avoid plasma-derived inhibitors) were tested for their ability to inhibit a standard amount of urokinase-type plasminogen activator (uPA) in the presence of plasminogen and the fluorometric peptide plasmin substrate d-Val-Leu-Lys-aminomethylcoumarin (Enzyme Systems, Livermore, Calif.). Inhibition of plasmin generation was compared to a standard curve of human PAI-1 (American Diagnostica, Greenwich, Conn.) to yield PAI-1 activity.

[3] = system: human SMC from fibroproliferative vascular lesions; test: Cell proliferation: DNA synthesis (3H-thymidine) in SMC; conditions: for reversibility of cytostatic effect upon withdrawal: corrected for cell number
Method: The effect of the structural hydroxypyridone analog kojic acid is shown for comparison. Serum-stimulated DNA synthesis in SMC was determined by a 4-hour pulse of ^3 H-thymidine given 20 hours after treatment with L-mimosine and kojic acid (filled symbols). Identically treated, but unlabeled cells cultured in parallel, at that time point were washed and returned to fresh culture media without inhibitor for an additional 20 hours prior to otherwise identical labeling with ^3 H-thymidine (open symbols). Data is expressed as ^3 H-thymidine incorporated per cell to compensate for the reduced cell number in the wake of inhibitor treatment.
Inhibition of DNA synthesis was examined by semiautomated methods. SMC were plated at 1×10^4 cells/well in 96-well microtiter plates at least 24 hours prior to the assay. Agents were introduced into normal serum-containing growth media for 20 hours before the cells were pulsed with ^3 H-thymidine (1 μCi/ml) for 4 hours. Cells were collected with a cell harvester and the DNA-incorporated label determined by scintillation counting (Betaplate; Wallac, Inc., Gaithersburg, Md.) (n=6 per point).

N[C@@H](Cn1ccc(=O)c(O)c1)C(=O)O [L-Mimosine]
inhibition of deoxyhypusyl hydroxylase activity [1]: inhibit deoxyhypusyl hydroxylase activity; also recorded: label is shifted to the unhydroxylated precursor of Hps
inhibition of secretion of procollagen type I (type I procollagen): potent inhibitor; also recorded: selectively suppressive effect
secretion of plasminogen activator inhibitor-1 (PAI-1) [2]: not affected; also recorded: not on release of plasminogen activator inhibitor-1
non-specific or toxic effects ([3]; FIGS. 6, 7): did not result from non-specific or toxic effects
reversibility of cytostatic effect upon withdrawal ([3]; FIG. 7, listed as L-mimosine): non-toxic reversibility
reversibility of cytostatic effect upon withdrawal ([3]; FIG. 7, listed as mimosine): fully reversible
rebound effect on DNA synthesis ([3]; following inhibitor removal and additional 24-hour recovery): marked rebound effect
inhibition of DNA synthesis ([3]; lesion-derived SMC, initial 24-hour treatment, FIG. 7): DNA synthesis was inhibited
reversibility of suppressive effects (collagen secretion, onset of DNA synthesis) ([3]; upon removal of compound): reversible
